Source: ChEMBL document CHEMBL1127773, “Inhibition of steroid 5-reductase by inverted, competitive inhibitors” (Bioorg Med Chem Lett, 1994)

biological target: T1, 3-oxo-5-alpha-steroid 4-dehydrogenase 2 (Homo sapiens, UniProt P31213); assay: Inhibitory activity against human prostatic Steroid 5-alpha-reductase
T1 sequence (P31213 whole entry): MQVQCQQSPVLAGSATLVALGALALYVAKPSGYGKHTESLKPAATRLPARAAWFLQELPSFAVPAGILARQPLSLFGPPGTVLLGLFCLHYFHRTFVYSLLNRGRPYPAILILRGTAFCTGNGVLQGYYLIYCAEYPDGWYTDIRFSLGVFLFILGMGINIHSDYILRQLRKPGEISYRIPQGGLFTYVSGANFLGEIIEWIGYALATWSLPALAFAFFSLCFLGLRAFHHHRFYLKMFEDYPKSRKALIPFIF

IC50	Structure (SMILES)
> 100 µM	CC(C)N(C(=O)[C@@H]1C[C@@H]2CCC3C4CCC(=O)N(C)[C@@]4(C)CCC3[C@@]2(C)C1)C(C)C (stereo partly drawn)
0.0086 µM	CCN(CC)C(=O)[C@H]1CC[C@H]2[C@@H]3CC[C@H]4N(C)C(=O)CC[C@]4(C)[C@H]3CC[C@]12C
12 µM	CN1C(=O)CCC2C3CCC4[C@@H](O)CC[C@]4(C)C3CC[C@@]21C (stereo partly drawn)
15 µM	CN1C(=O)CCC2C3CC[C@H]4CC(=O)CC[C@]4(C)C3CC[C@@]21C (stereo partly drawn)
40 µM	CC(C)N(C(=O)[C@@H]1CC2CCC3C(CC[C@@]4(C)C3CCC(=O)N4C)[C@@]2(C)C1)C(C)C (stereo partly drawn)
32 µM	CN1C(=O)CCC2C3CC=C4C[C@@H](O)CC[C@]4(C)C3CC[C@@]21C (stereo partly drawn)
4 µM	CN1C(=O)CCC2C3CC[C@H]4C[C@@H](O)CC[C@]4(C)C3CC[C@@]21C (stereo partly drawn)

Structure (SMILES)	IC50
CN1C(=O)CC[C@@]2(C)C1CC[C@H]1[C@@H]3CC[C@H](O)[C@@]3(C)CC[C@@H]12 (stereo partly drawn)	> 0.43 µM
